Experimental data: patent US12077503B2, “Substituted cyclic amides and their use as herbicides” (FMC CORPORATION, priority 2015, dated 2024)

Experiments:
Type in all cases: in vivo
[1] = test system: giant foxtail (Setaria faberii); assay: Test A postemergence; conditions: Setaria faberi, post-emergence, 240 h, Postemergence, read-out: Foxtail, Giant plant response rating (0 to 100 scale); for pest or weed control at 125 g/ha: 125 g ai/ha, visual rating about 10 d after treatment; for pest or weed control at 31 g/ha: 31 g ai/ha, 0 is no effect, 100 is complete control
Summary of the method: (§1)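 Ratings of 0 (no effect) to 100 (complete control) come from visual comparison with untreated controls roughly 10 d after treatment. Test chemicals, formulated in a non-phytotoxic solvent mixture with surfactant, were applied either as a preemergence directed soil spray on seeded soil or postemergence to one- to two-leaf plants 2 to 10 cm tall.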

[2] = test system: wheat (Triticum aestivum); assay: Test A postemergence; conditions: Triticum aestivum, post-emergence, 240 h, Postemergence, read-out: Wheat plant response rating (0 to 100 scale); for plant injury at 125 g/ha: 125 g ai/ha, visual rating about 10 d after treatment; for plant injury at 31 g/ha: 31 g ai/ha, 0 is no effect, 100 is complete control
Summary of the method: as §1

[3] = test system: ragweed (common ragweed, Ambrosia elatior); assay: Test A postemergence; conditions: Ambrosia artemisiifolia, post-emergence, 240 h, Postemergence, read-out: Ragweed plant response rating (0 to 100 scale); for pest or weed control at 125 g/ha: 125 g ai/ha, visual rating about 10 d after treatment; for pest or weed control at 31 g/ha: 31 g ai/ha, 0 is no effect, 100 is complete control
Summary of the method: as §1

[4] = test system: blackgrass (Alopecurus myosuroides); assay: Test A postemergence; conditions: Alopecurus myosuroides, post-emergence, 240 h, Postemergence, read-out: Blackgrass plant response rating (0 to 100 scale); for pest or weed control at 125 g/ha: 125 g ai/ha, visual rating about 10 d after treatment; for pest or weed control at 31 g/ha: 31 g ai/ha, 0 is no effect, 100 is complete control
Summary of the method: as §1

[5] = test system: pigweed (Amaranthus retroflexus); assay: Test A postemergence; conditions: Amaranthus retroflexus, post-emergence, 240 h, Postemergence, read-out: Pigweed plant response rating (0 to 100 scale); for pest or weed control at 125 g/ha: 125 g ai/ha, visual rating about 10 d after treatment; for pest or weed control at 31 g/ha: 31 g ai/ha, 0 is no effect, 100 is complete control
Summary of the method: as §1

corn (Zea mays) = assay: Test A postemergence; conditions: Zea mays, post-emergence, 240 h, Postemergence, read-out: Corn plant response rating (0 to 100 scale); for plant injury at 125 g/ha: 125 g ai/ha, visual rating about 10 d after treatment; for plant injury at 31 g/ha: 31 g ai/ha, 0 is no effect, 100 is complete control
Summary of the method: as §1

[6] = test system: ryegrass, Italian (Italian ryegrass, Lolium multiflorum); assay: Test A postemergence; conditions: Lolium multiflorum, post-emergence, 240 h, Postemergence, read-out: Ryegrass, Italian plant response rating (0 to 100 scale); for pest or weed control at 125 g/ha: 125 g ai/ha, visual rating about 10 d after treatment; for pest or weed control at 31 g/ha: 31 g ai/ha, 0 is no effect, 100 is complete control
Summary of the method: as §1

Kochia (Kochia scoparia) [7] = assay: Test A postemergence; conditions: Bassia scoparia, post-emergence, 240 h, Postemergence, read-out: Kochia plant response rating (0 to 100 scale); for pest or weed control at 125 g/ha: 125 g ai/ha, visual rating about 10 d after treatment; for pest or weed control at 31 g/ha: 31 g ai/ha, 0 is no effect, 100 is complete control
Summary of the method: as §1

[8] = test system: Galium (catchweed bedstraw, Galium aparine); assay: Test A postemergence; conditions: Galium, post-emergence, 240 h, Postemergence, read-out: Galium plant response rating (0 to 100 scale); for pest or weed control at 125 g/ha: 125 g ai/ha, visual rating about 10 d after treatment; for pest or weed control at 31 g/ha: 31 g ai/ha, 0 is no effect, 100 is complete control
Summary of the method: as §1

[9] = test system: barnyardgrass (Echinochloa crus-galli); assay: Test A postemergence; conditions: Echinochloa crus-galli, post-emergence, 240 h, Postemergence; for pest or weed control at 125 g/ha: 125 g ai/ha, visual rating about 10 d after treatment, read-out: Barnyardgrass plant response rating (0 to 100 scale, 0 no effect, 100 complete control); for pest or weed control at 31 g/ha: 31 g ai/ha, 0 is no effect, 100 is complete control, read-out: Barnyardgrass plant response rating (0 to 100 scale)
Summary of the method: as §1

[10] = test system: ragweed (common ragweed, Ambrosia elatior); assay: Test A preemergence; conditions: Ambrosia artemisiifolia, pre-emergence, 240 h, Preemergence; for pest or weed control at 31 g/ha: 31 g ai/ha, 0 to 100 scale where 0 is no effect and 100 is complete control, read-out: Ragweed plant response rating; for pest or weed control at 125 g/ha: 125 g ai/ha, 0 to 100 scale (0 no effect, 100 complete control), read-out: Plant response rating, Ragweed
Summary of the method: as §1

[11] = test system: pigweed (Amaranthus retroflexus); assay: Test A preemergence; conditions: Amaranthus retroflexus, pre-emergence, 240 h, Preemergence; for pest or weed control at 31 g/ha: 31 g ai/ha, 0 to 100 scale where 0 is no effect and 100 is complete control, read-out: Pigweed plant response rating; for pest or weed control at 125 g/ha: 125 g ai/ha, 0 to 100 scale (0 no effect, 100 complete control), read-out: Plant response rating, Pigweed
[12] = test system: ryegrass, Italian (Italian ryegrass, Lolium multiflorum); assay: Test A preemergence; conditions: Lolium multiflorum, pre-emergence, 240 h, Preemergence; for pest or weed control at 31 g/ha: 31 g ai/ha, 0 to 100 scale where 0 is no effect and 100 is complete control, read-out: Ryegrass, Italian plant response rating; for pest or weed control at 125 g/ha: 125 g ai/ha, 0 to 100 scale (0 no effect, 100 complete control), read-out: Plant response rating, Ryegrass, Italian
Summary of the method: as §1

Kochia (Kochia scoparia) [13] = assay: Test A preemergence; conditions: Bassia scoparia, pre-emergence, 240 h, Preemergence; for pest or weed control at 31 g/ha: 31 g ai/ha, 0 to 100 scale where 0 is no effect and 100 is complete control, read-out: Kochia plant response rating; for pest or weed control at 125 g/ha: 125 g ai/ha, 0 to 100 scale (0 no effect, 100 complete control), read-out: Plant response rating, Kochia
Summary of the method: as §1

[14] = test system: barnyardgrass (Echinochloa crus-galli); assay: Test A preemergence; conditions: Echinochloa crus-galli, pre-emergence, 240 h, Preemergence; for pest or weed control at 31 g/ha: 31 g ai/ha, 0 to 100 scale where 0 is no effect and 100 is complete control, read-out: Barnyardgrass plant response rating; for pest or weed control at 125 g/ha: 125 g ai/ha, 0 to 100 scale (0 no effect, 100 complete control), read-out: Plant response rating, Barnyardgrass
Summary of the method: as §1

[15] = test system: giant foxtail (Setaria faberii); assay: Test A preemergence; conditions: Setaria faberi, pre-emergence, 240 h, Preemergence
Summary of the method: as §1

[16] = test system: ducksalad (Heteranthera limosa); assay: Test B flooded paddy test; conditions: Heteranthera limosa, 360 h, Flood, 250 g ai/ha; visually evaluated after 13 to 15 d; read-out: Plant response rating, Ducksalad (0 to 100 scale where 0 is no effect and 100 is complete control)
Summary of the method: (§2)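 Compound goes directly into floodwater once pots are flooded 3 cm above soil, targeting plants at two leaves; the water depth is then held for the test duration. Plants sit 13–15 d in a greenhouse and are rated visually, 100 denoting complete control.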

[17] = test system: barnyardgrass (Echinochloa crus-galli); assay: Test B flooded paddy test; conditions: Echinochloa crus-galli, 360 h, Flood, 250 g ai/ha; visually evaluated after 13 to 15 d; read-out: Plant response rating, Barnyardgrass (0 to 100 scale where 0 is no effect and 100 is complete control)
Summary of the method: as §2

[18] = test system: sedge, umbrella (small-flower umbrella sedge, Cyperus difformis); assay: Test B flooded paddy test; conditions: Cyperus difformis, 360 h, Flood, 250 g ai/ha; visually evaluated after 13 to 15 d; read-out: Plant response rating, Sedge, Umbrella (0 to 100 scale where 0 is no effect and 100 is complete control)
Summary of the method: as §2

rice (Oryra sativa) = assay: Test B flooded paddy test; conditions: Oryza sativa, 360 h, Flood, 250 g ai/ha; visually evaluated after 13 to 15 d; read-out: Plant response rating, Rice (0 to 100 scale where 0 is no effect and 100 is complete control)
Summary of the method: as §2

Structure (SMILES)	pest or weed control at 125 g/ha [1] [%]	pest or weed control at 31 g/ha [1] [%]	plant injury at 125 g/ha [2] [%]	plant injury at 31 g/ha [2] [%]	pest or weed control at 125 g/ha [3] [%]	pest or weed control at 31 g/ha [3] [%]	pest or weed control at 125 g/ha [4] [%]	pest or weed control at 31 g/ha [4] [%]	pest or weed control at 125 g/ha [5] [%]	pest or weed control at 31 g/ha [5] [%]	plant injury at 125 g/ha (corn (Zea mays)) [%]	plant injury at 31 g/ha (corn (Zea mays)) [%]	pest or weed control at 125 g/ha [6] [%]	pest or weed control at 31 g/ha [6] [%]	pest or weed control at 125 g/ha (Kochia (Kochia scoparia) [7]) [%]	pest or weed control at 31 g/ha (Kochia (Kochia scoparia) [7]) [%]	pest or weed control at 125 g/ha [9] [%]	pest or weed control at 31 g/ha [9] [%]	pest or weed control at 31 g/ha [10] [%]	pest or weed control at 125 g/ha [10] [%]	also measured
CN1C[C@H](c2csc3c2CCC(F)(F)C3)[C@@H](C(=O)Nc2cccc(F)c2F)C1=O (racemic) [Compound 1369]	50	20	0	0	20	0	20	0	20	20	0	0	30	0	20	0	60	20	50	70	pest or weed control at 125 g/ha [8]: 30%; pest or weed control at 31 g/ha [8]: 0%; pest or weed control at 31 g/ha [11]: 0%; pest or weed control at 125 g/ha [11]: 0%; pest or weed control at 31 g/ha [12]: 0%; pest or weed control at 125 g/ha [12]: 0%; pest or weed control at 31 g/ha (Kochia (Kochia scoparia) [13]): 0%; pest or weed control at 125 g/ha (Kochia (Kochia scoparia) [13]): 0%; pest or weed control at 31 g/ha [14]: 0%; pest or weed control at 125 g/ha [14]: 100%
CN1C[C@H](c2ccc3c(c2)OC(F)(F)O3)[C@@H](C(=O)Nc2ccc(F)nc2F)C1=O [Compound 1350]	90	70	50	20	60	0	50	0	70	30	50	30	20	20	70	50	90	60	50	80	pest or weed control at 31 g/ha ([15]; 31 g ai/ha, 0 to 100 scale where 0 is no effect and 100 is complete control, read-out: Foxtail, Giant plant response rating): 100%; pest or weed control at 125 g/ha ([15]; 125 g ai/ha, 0 to 100 scale (0 no effect, 100 complete control), read-out: Plant response rating, Foxtail, Giant): 100%; pest or weed control at 31 g/ha [11]: 70%; pest or weed control at 125 g/ha [11]: 90%; pest or weed control at 31 g/ha [12]: 30%; pest or weed control at 125 g/ha [12]: 30%; pest or weed control at 31 g/ha (Kochia (Kochia scoparia) [13]): 30%; pest or weed control at 125 g/ha (Kochia (Kochia scoparia) [13]): 70%; pest or weed control at 31 g/ha [14]: 90%; pest or weed control at 125 g/ha [14]: 90%; pest or weed control at 250 g/ha [16]: 90%; pest or weed control at 250 g/ha [17]: 90%; pest or weed control at 250 g/ha [18]: 0%; pest or weed control at 250 g/ha (rice (Oryra sativa)): 0%
CN1C[C@H](c2csc3c2CCC(F)(F)C3)[C@@H](C(=O)Nc2ccc(F)c(F)c2F)C1=O (racemic) [Compound 1368]	40	0	0	0	0	0	30	0	0	0	0	0	40	20	20	0	50	20	0	0	pest or weed control at 125 g/ha [8]: 30%; pest or weed control at 31 g/ha [8]: 0%; pest or weed control at 31 g/ha [11]: 0%; pest or weed control at 125 g/ha [11]: 0%; pest or weed control at 31 g/ha [12]: 0%; pest or weed control at 125 g/ha [12]: 0%; pest or weed control at 31 g/ha (Kochia (Kochia scoparia) [13]): 0%; pest or weed control at 125 g/ha (Kochia (Kochia scoparia) [13]): 0%; pest or weed control at 31 g/ha [14]: 0%; pest or weed control at 125 g/ha [14]: 100%
